Test results as given in ChEMBL document CHEMBL3301546, “MMV Malaria Box yeast growth screening”.

Columns and labels:
Format in all cases: functional
Saccharomyces cerevisiae [1] = assay: (§1) MMV: Growth assays were conducted using the prototrophic S. cerevisiae strain JHY222. Each MMV compound (0.1 mM) was tested in minimal media containing dextrose as a carbon source (Yeast Nitrogen Base, Dextrose; YNBD). The growth rate in the presence of each MMV compound was calculated as follows: (i) the first 10 OD readings were averaged and subtracted from all OD readings of the corresponding curve to set the baseline of the growth curve to zero, and (ii) the area under the curve (AUC) was then calculated as the sum of all OD readings. […] A relative growth value was calculated as follows: AUC(DRUG) - AUC(DMSO)/AUC(DMSO); where AUC(DMSO) represents growth measured in a DMSO control well that was on the same microtiter plate of the drug-treated culture.
Saccharomyces cerevisiae [2] = assay: as §1, with “rich” for “minimal”, “Extract, Peptone,” for “Nitrogen Base,”, “YPD).” for “YNBD).”
Saccharomyces cerevisiae [3] = assay: as §1, with “ethanol and glycerol” for “dextrose”, “as” for “as a”, “sources” for “source”, “Ethanol, Glycerol; YNBEG).” for “Dextrose; YNBD).”

| SMILES | Relative Growth (Saccharomyces cerevisiae [1]) | Relative Growth (Saccharomyces cerevisiae [2]) | Relative Growth (Saccharomyces cerevisiae [3]) |
| --- | --- | --- | --- |
| CCOc1c(Cl)cc(CNCC(O)c2ccccc2)cc1OC (stereo not given) | 0.0136 | -0.0592 | -0.2647 |
| COc1ccc(Br)cc1C1Nc2ccc3ccccc3c2C2=C1C(=O)CC(c1ccccc1)C2 (stereo not given) | 0.0368 | -0.0736 | -0.105 |
| O=C(c1ccccc1F)N(Cc1ccc(Cl)cc1)c1ccccn1 | 0.0025 | -0.0537 | -0.0049 |
| COc1ccc(CCN2CCC(CN(C)Cc3cnn(-c4ccccc4)c3)CC2)cc1 | -0.2117 | 0.0613 | -0.844 |
| CCN1CCN(c2c(C(=O)c3ccccc3)cnc3cc(OC)c(OC)cc23)CC1 | 0.0169 | -0.0459 | -0.2869 |
| O=C(CCl)NCCOc1ccc(Cl)cc1Cl | 0.0391 | -0.0085 | -0.0052 |
| COc1ccc(C=C2SC(Nc3ccc(F)cc3)=NC2=O)c(OC)c1 | -0.7691 | -0.0657 | -0.8081 |
| CC(C)(C)c1ccc(C(=O)Nc2c3c(nn2-c2cccc(Cl)c2)CSC3)cc1 | -0.3492 | -0.0819 | -0.291 |
| CCN(CC)CCCNc1ccnc2cc3ccccc3cc12 | 0.0381 | -0.9889 | 0.1561 |
| CCC(=O)Nc1nnc(Cc2ccc(OC)c(OC)c2)s1 | -0.019 | -0.0143 | -0.1225 |
| COc1ccc(-c2nc(NC(=O)CS(=O)(=O)c3ccc(F)cc3)sc2C)cc1 | 0.0372 | 0.0127 | 0.1484 |
| Fc1ccc2[nH]c3c(NCCCN4CCOCC4)ncnc3c2c1 | 0.0125 | -0.0189 | 0.0735 |
| Cc1cc(C)cc(Nc2cc(C)nc3nc(C(F)(F)F)nn23)c1 | 0.0866 | -0.0343 | -0.0322 |
| COc1ccc2nc(C)cc(Nc3ccccc3O)c2c1 | 0.0332 | -0.0232 | -0.0329 |
| COc1ccc(/C=C2/SC(=Nc3ccccc3)NC2=O)cc1 | -0.223 | -0.1491 | -0.9641 |
| COc1ccc(Nc2nc(NCc3ccccc3)c3ccccc3n2)cc1 | 0.0331 | 0.0094 | -0.0366 |
| O=c1cc(NC2CCN(CCCc3ccccc3)CC2)c2cc(Cl)ccc2o1 | 0.014 | -0.0193 | 0.0246 |
| Cc1ccc(C2CC(C(F)(F)F)n3nc(C(=O)N4CCN(C(c5ccccc5)c5ccccc5)CC4)cc3N2)cc1 (stereo not given) | -0.1134 | 0.0315 | -0.019 |
| Cc1ccccc1OCCSc1nc2ccc(NC(=O)c3cccs3)cc2s1 | -0.1829 | -0.0038 | -0.9335 |
| O=c1nc(C=Cc2ccc(Cl)cc2)oc2ccccc12 | 0.0988 | 0.0204 | 0.0415 |
| CCCCc1ccc(NS(=O)(=O)c2cc3c4c(c2)CCN4C(=O)CC3)cc1 | -0.0346 | -0.0323 | 0.0701 |
| O=C(Nc1ccc(-c2nc3ccccc3[nH]2)cc1)c1ccc(Cl)c(Cl)c1 | 0.027 | 0.0053 | 0.0462 |
| CC1CCN(Cc2ccc(NC(=O)c3cc4ccc5cccnc5c4[nH]3)cc2)CC1 | 0.121 | -0.0895 | -0.318 |
| COc1cccc(C(=O)NC(c2ccc(C)cc2)c2cc(Cl)c3cccnc3c2O)c1 (stereo not given) | 0.017 | -0.0292 | 0.1449 |
| COc1ccc(-c2cc3c(nn2)-c2ccccc2C3=O)cc1 | -0.3119 | 0.0333 | -0.8829 |
| COc1ccc2nc(C)cc(Nc3ccc(Cl)cc3)c2c1 | 0.0064 | -0.0836 | -0.1037 |
| Cc1cc(N(C)C)nc(Nc2ccc(NC(=O)Nc3ccccc3)cc2)n1 | -0.0678 | -0.0299 | -0.3445 |
| Cl.N=c1n(CCN2CCCCC2)c2ccccc2n1CC(O)c1cccc(Br)c1 (stereo not given) | -0.2329 | -0.0788 | -0.5142 |

| SMILES | Relative Growth (Saccharomyces cerevisiae [1]) | Relative Growth (Saccharomyces cerevisiae [2]) | Relative Growth (Saccharomyces cerevisiae [3]) |
| --- | --- | --- | --- |
| COc1ccc(CCn2c(=N)c(C(=O)NCc3cccnc3)cc3c(=O)n4cccc(C)c4nc32)cc1 | 0.0391 | 0.0999 | -0.1242 |
| CCn1c(SCC(=O)Nc2cc(C(F)(F)F)ccc2Cl)nc2ccccc2c1=O | -0.0156 | -0.0109 | -0.159 |
| CN(C)CCCNCc1ccc(-c2ccc(F)c(Cl)c2)o1.Cl | 0.0576 | -0.0396 | 0.0645 |
| COc1cc(OC)cc(N2C(=O)N(Cc3ccc(C(C)(C)C)cc3)c3ccccc3S2(=O)=O)c1 | 0.0008 | -0.7249 | -0.0128 |
| CCOC(=O)c1cnc2c(C)cc(C)cc2c1Nc1ccc(OC)c(OC)c1 | 0.0948 | -0.1039 | -0.222 |
| CCC(c1ccccc1)c1nn2c(-c3cccs3)nnc2s1 (stereo not given) | 0.0181 | -0.0182 | 0.1287 |
| CN1C=C(c2ccc3ccccc3n2)C(c2c[nH]c3ccccc23)c2ccccc21 (stereo not given) | 0.0287 | -0.6873 | -0.048 |
| O=C1c2ccccc2-c2nnc(-c3ccc(Br)cc3)cc21 | 0.0312 | -0.0452 | 0.1282 |
| CCOc1cccc2sc(N(Cc3cccnc3)C(=O)C3CCCCC3)nc12 | -0.0544 | -0.0327 | -0.3394 |
| CC(C)(C)c1ccc(C2CC3=Nc4ccccc4N(C(=O)c4ccccc4Cl)C(c4ccc(F)cc4)C3=C(O)C2)cc1 (stereo not given) | -0.0515 | -0.0874 | -0.3538 |
| CC(C)(C)CC(C)(C)NCC(O)COc1ccc(Cl)cc1Cl (stereo not given) | 0.0104 | -0.1373 | -0.1363 |
| O=C(Nc1ccc(Cl)c(Cl)c1)Nc1ccc(Cl)c(Cl)c1 | 0.0087 | -0.0117 | 0.0859 |
| CC(=O)Nc1nnc(SCc2c(C)cc(C(C)(C)C)cc2C)s1 | 0.0621 | 0.0168 | 0.0163 |
| CCOc1ccc(N2C(N)=NC(N)=NC2(C)C)cc1.Cl | -0.1178 | -0.0058 | 0.0602 |
| O=C(NCc1ccco1)C1CCN(S(=O)(=O)c2ccc(Br)cc2)CC1 | -0.0814 | -0.1145 | -0.2359 |
| Cc1ccc(Nc2nc(N)c3ccccc3n2)cc1Cl | -0.1031 | -0.0022 | -0.1803 |
| COc1ccc(C(=O)Nc2ccc3nc(N4CCCCC4)cc(C)c3c2)cc1OC | -0.1419 | -0.0828 | -0.4538 |
| CCOC(=O)c1cnc2ccc(CC)cc2c1O | 0.0544 | -0.243 | -0.0424 |
| OC1=C2C(=Nc3ccccc3SC2c2ccccc2)c2ccccc21 (stereo not given) | -0.1585 | -0.0053 | -0.0669 |
| c1ccc(-c2ccc(-c3nc4ccccc4[nH]3)cc2)cc1 | -0.0469 | -0.0154 | 0.0562 |
| O=C(CCc1ccccc1)c1ccccc1OCC(O)CN1CCCCC1 (stereo not given) | 0.0209 | -0.6663 | -0.1402 |
| COc1ccc(C(C)=O)cc1N1C(=O)C2C(C1=O)C1(c3ccccc3)C(=O)C2(c2ccccc2)C(c2ccc(C)cc2)=C1c1ccc(C)cc1 (stereo not given) | -0.0144 | -0.992 | 0.0688 |
| COc1ccc(NC(=O)C2c3ccccc3C(=O)N(CC(C)C)C2c2cccs2)cc1Cl (stereo not given) | 0.0154 | -0.1808 | -0.0036 |
| OC(CNCC1CCCO1)Cn1c2ccc(Cl)cc2c2cc(Cl)ccc21 (stereo not given) | 0.0307 | -0.0004 | 0.0106 |
| COc1cc(CNCCc2ccc(Cl)cc2)cc(OC)c1O | 0.0037 | 0.0063 | -0.0938 |
| CCOc1cc2c(cc1OCC)C(c1cc(Cl)c(O)c(OCC)c1)NCC2 (stereo not given) | 0.0679 | 0.0051 | -0.0121 |
| CN1CCN(c2nc(Nc3ccc(O)cc3)nc3ccccc23)CC1.Cl | -0.0206 | -0.0029 | -0.0432 |
